One experiment addresses T1, M.TaqI (Thermus aquaticus, UniProt P14385).
T1 construct: made in house
The experiment is described as follows: Modification of adenine-N6 in duplex oligodeoxynucleotide I.II by M.TaqI, nucleoside analysis by HPLC/ESI-MS. The experiment is classed as biochemical. Particulars: 37° C. over night, near-stoichiometric enzyme. The text has this: (§1) Transfer of the activated ethyl (CH2CH3), propyl (CH2CH2CH3), prop-2-enyl (CH2CHCH2), prop-2-ynyl group (CH2CCH), but-2-ynyl (CH2CCCH3), pent-2-ynyl (CH2CCCH2CH3) or benzyl group (CH2C6H5) from cofactors 3-9 by the DNA adenine-N6 methyltransferase M.TaqI, the DNA cytosine-C5 methyltransferase M.HhaI variant Q82A or the DNA cytosine-N4 methyltransferase M.BcnIB to DNA was first investigated using short duplex oligodeoxynucleotides as substrates. After enzymatic transfer the duplex oligodeoxynucleotides were enzymatically fragmented and the resulting modified nucleosides were analyzed by reversed-phase HPLC coupled with ESI-MS.
M.TaqI was denatured by heating to 95° C. for 10 min and removed by centrifugation ([…], 2 min). The modified duplex oligodeoxynucleotides I^Z—R-II were desalted by gel filtration (NAP-5 column, Amersham Biosciences, Freiburg, Germany), eluted with water (1 mL) and lyophilized.
The modified duplex oligodeoxynucleotides I^Z—R-II were dissolved in buffer (100 μL, 10 mM Tris hydrochloride, 10 mM magnesium chloride, 1 mM zinc acetate, pH 7.5) containing Nuclease PI (1500 u, Sigma, Taufkirchen, Germany) and calf intestine alkaline phosphatase (30 u, MBI Fermentas, St. Leon-Rot, Germany) and incubated at 37° C. for 4 h. Nucleosides were analyzed by reversed-phase HPLC (Symmetry-C18 5 μm, 100 Å, 250×4.6 mm, equipped with a Symmetry-C18 5 μm, 100 Å, 20×4.6 mm pre-column, Waters, Eschborn, Germany). Compounds were eluted with acetonitrile (5% for 7 min, followed by linear gradients to 6% in 15 min, to 35% in 8 min and to 70% in 2 min) in triethylammonium acetate buffer (10 mM, pH 7.0) at a flow of 1 mL/min and detected at 254 nm.
For HPLC-coupled ESI-MS measurements compounds were eluted with methanol (0% for 3 min, followed by a linear gradient to 100% in 22 min) in ammonium formate buffer (20 mM, pH 3.5). A post-column mobile phase modification (equal co-flow of 96% methanol, 4% formic acid) was used to enhance the detection efficiency of 2′-deoxyadenosine and its derivatives. Mass spectra were recorded in 200-370 m/z range.
The hemimethylated duplex oligodeoxynucleotide I.II (compare Scheme 5, Example 2A) was produced by mixing equal molar amounts of complementary single-stranded oligodeoxynucleotide I (5′-GCCGCTCGATGCCG-3′) (SEQ. ID NO. 1) and II (5′-CGGCATCGA^MeGCGGC-3′, A^Me=N6-methyl-2′-deoxyadenosine) (SEQ ID NO. 2) in water, heating at 85° C. for 5 min and slow cooling to room temperature. […] The solution was heated to 95° C. for 10 min, supplemented with Proteinase K and incubated at 55° C. for 2 h. Hydrolysis products were removed by gel filtration (G-25 column, Amersham Biosciences).
The obtained solution was treated with buffer ( 1/10 volume, 100 mM Tris hydrochlorid, 100 mM magnesium chloride, 10 mM zinc acetate, pH 7.5) containing Nuclease P1 (1.14 u, Sigma, Taufkirchen, Germany) and calf intestine alkaline phosphatase (18 u, MBI Fermentas), incubated at 42° C. for 4 h and passed through a Microcon YM-3 spin column (Amicon). Nucleosides were analyzed by reversed-phase HPLC (Discovery HS C18 75×2.1 mm, 3 μm, equipped with a Supelguard Discovery HS C18 20×2.1 mm, 5 μm, pre-column, Supelco, Germany) coupled with a mass spectrometric detector (HP 1100 series ESI-MS equipped with single quadruple). Compounds were eluted with methanol (0% for 3 min, followed by linear gradients to 20% in 15 min and to 80% in 2 min) in ammonium formate buffer (20 mM, pH 3.5) at a flow of 0.3 mL/min. For on-line mass spectrometric detection post-column mobile phase modification (equal co-flow of 96% methanol, 4% formic acid and 1 mM sodium hydroxide) was used to enhance the detection efficiency of 2′-deoxyadenosine, 2′-deoxycytidine and their derivatives. Mass spectra were recorded in 50-600 m/z range.

A further experiment concerns the target T2, M.HhaI-Q82A (Haemophilus parahaemolyticus, UniProt P05102, Q82A).
T2 construct: made in house
The experiment is described as follows: Modification of cytosine-C5 in duplex oligodeoxynucleotide III.IV by M.HhaI-Q82A, nucleoside analysis by HPLC/ESI-MS. The experiment is classed as biochemical. Particulars: duplex III.IV 12.5 μM, cofactor 300 μM, enzyme 15 μM, 37° C. over night.
Excerpt: as §1
Therefore, the codon for Q82 was changed to a codon for alanine by standard Kunkel mutagenesis (Kunkel et al., […] Proc. Natl. Acad. Sci. USA 82, 488-492) and the correct DNA sequence of the complete gene was verified by DNA sequencing. Expression and purification of the Q82A variant was performed as described for the wild-type enzyme (Kumar et al., (1992) Biochemistry 31, 8648-8653; Klimasauskas et al., (1998) EMBO J. 17, 317-324). The presence of the amino acid substitution was verified by mass spectrometric analysis of purified M.HhaI-Q82A.
The duplex oligodeoxynucleotide III.IV was produced by mixing equal molar amounts (2.5 nmol) of complementary single-stranded oligodeoxynucleotide III (5′-[…]-3′) (SEQ ID NO. 3) and IV (5′-[…]-3′) (SEQ ID NO. 4) in water, heating at 85° C. for 5 min and slow cooling to room temperature. […] M.HhaI-Q82A was denatured by heating to 80° C. for 10 min and incubation with Proteinase K at 55° C. for 1 h. Hydrolysis products were removed by gel filtration (G-25 column, Amersham Biosciences).
The obtained solutions of duplex oligodeoxynucleotides were treated with buffer ( 1/10 volume, 100 mM Tris hydrochloride, 100 mM magnesium chloride, 10 mM zinc acetate, pH 7.5) containing Nuclease P1 (1500 u, Sigma) and calf intestine alkaline phosphatase (30 u, MBI Fermentas) and incubated at 37° C. for 4 h. Nucleosides were analyzed by reversed-phase HPLC (Discovery C18 150×2.1 mm, 5 μm, equipped with a Supelguard Discovery C18 20×2.1 mm, 5 μm, pre-column, Supelco, Germany) coupled with a mass spectrometric detector (HP 1100 series ESI-MS equipped with single quadruple). Compounds were eluted with methanol (0% for 6 min, followed by linear gradients to 56% in 15 min and to 80% in 1 min) in ammonium formate buffer (20 mM, pH 4.25 for cofactors 3, 4, 6 and pH 3.5 for cofactors 5, 7, 8) at a flow of 0.3 mL/min and detected at 280 nm. For on-line mass spectrometric detection post-column mobile phase modification (equal co-flow of 96% methanol, 4% formic acid and 1 mM sodium hydroxide) was used to enhance the detection efficiency of 2′-deoxycytidine and its derivatives. Mass spectra were recorded in 50-600 m/z range.

T2 sequence (P05102 whole entry Q82A): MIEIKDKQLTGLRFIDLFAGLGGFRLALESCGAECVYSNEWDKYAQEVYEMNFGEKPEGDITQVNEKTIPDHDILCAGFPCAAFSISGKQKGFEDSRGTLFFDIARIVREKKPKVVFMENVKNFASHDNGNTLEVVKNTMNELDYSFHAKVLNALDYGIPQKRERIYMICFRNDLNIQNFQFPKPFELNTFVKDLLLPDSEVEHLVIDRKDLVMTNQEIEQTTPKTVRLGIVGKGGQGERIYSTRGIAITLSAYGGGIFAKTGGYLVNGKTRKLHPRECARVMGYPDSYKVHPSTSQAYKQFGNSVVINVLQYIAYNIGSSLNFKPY
T1 sequence (P14385 whole entry): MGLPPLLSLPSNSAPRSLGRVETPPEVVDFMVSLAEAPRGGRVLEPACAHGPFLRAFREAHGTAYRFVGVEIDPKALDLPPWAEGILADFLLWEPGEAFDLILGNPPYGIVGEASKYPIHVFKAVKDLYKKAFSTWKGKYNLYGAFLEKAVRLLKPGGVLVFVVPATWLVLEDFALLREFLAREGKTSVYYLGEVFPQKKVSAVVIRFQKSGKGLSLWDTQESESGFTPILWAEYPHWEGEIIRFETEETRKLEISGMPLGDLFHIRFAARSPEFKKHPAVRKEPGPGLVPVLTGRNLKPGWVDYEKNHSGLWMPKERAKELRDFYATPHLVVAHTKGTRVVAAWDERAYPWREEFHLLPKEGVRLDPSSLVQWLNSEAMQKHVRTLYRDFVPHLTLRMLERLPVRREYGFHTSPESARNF

Consider `CC#CC[S+](CCC(N)C(=O)O)CC1OC(n2cnc3c(N)ncnc32)C(O)C1O` (mixture of isomers) [Cofactor 7], for which the “cofactor function for M.TaqI (transfer of group Z-R to adenine-N6)” value (shortened to “cofactor function for M.TaqI”) at M.TaqI is on record as “functions as a cofactor”. Besides, on M.HhaI-Q82A, the “cofactor function for M.HhaI-Q82A (transfer of group Z-R to cytosine-C5)” value (from here on “cofactor function for M.HhaI-Q82A”) was “functions as a cofactor”.

For the compound `CC[S+](CCC(N)C(=O)O)CC1OC(n2cnc3c(N)ncnc32)C(O)C1O` (stereo not shown) [Cofactor 3], the “cofactor function for M.TaqI” value on M.TaqI is “functions as a cofactor”. Also, the “cofactor function for M.HhaI-Q82A” value at M.HhaI-Q82A is “functions as a cofactor”.

For the compound `CCC[S+](CCC(N)C(=O)O)CC1OC(n2cnc3c(N)ncnc32)C(O)C1O` (stereo not shown) [Cofactor 4], the “cofactor function for M.TaqI” value at M.TaqI is reported as “functions as a cofactor”. Moreover, on M.HhaI-Q82A, the “cofactor function for M.HhaI-Q82A” value is “does not function as a cofactor”.

In the case of `C=CC[S+](CCC(N)C(=O)O)CC1OC(n2cnc3c(N)ncnc32)C(O)C1O` (stereo not shown) [Cofactor 5], the “cofactor function for M.TaqI” value at M.TaqI is listed as “functions as a cofactor”. Besides, on M.HhaI-Q82A, the “cofactor function for M.HhaI-Q82A” value is reported as “functions as a cofactor”.

In the case of `C#CC[S+](CCC(N)C(=O)O)CC1OC(n2cnc3c(N)ncnc32)C(O)C1O` (stereo not shown) [Cofactor 6], the “cofactor function for M.TaqI” value at M.TaqI is given as “functions as a cofactor”. Further, the “cofactor function for M.HhaI-Q82A” value on M.HhaI-Q82A is “functions as a cofactor”.

As to `CCC#CC[S+](CCC(N)C(=O)O)CC1OC(n2cnc3c(N)ncnc32)C(O)C1O` (stereo not shown) [Cofactor 8], the “cofactor function for M.TaqI” value at M.TaqI is reported as “functions as a cofactor”. Also, at M.HhaI-Q82A, the “cofactor function for M.HhaI-Q82A” value is given as “functions as a cofactor”.

As for `NCCCC(=O)NCC#CC[S+](CCC(N)C(=O)O)CC1OC(n2cnc3c(N)ncnc32)C(O)C1O` (stereo not shown) [Cofactor 10], the “cofactor function for M.TaqI” value at M.TaqI was “functions as a cofactor”.

Values taken from US8008007B2, “S-adenosyl-L-methionine analogs with extended activated groups for transfer by methyltransferases” (RWTH Aachen, priority 2005, dated 2011).
